According to paper PMC11754443, “Synthesis, H2S releasing properties, antiviral and antioxidant activities and acute cardiac effects of nucleoside 5′-dithioacetates” (Scientific Reports, 2025):
Values joined by “and” are separate entries in the source; they are usually repeats but may differ in a detail not shown here. Identical values can stand only once. Like-named read-outs stand apart in the source and are kept apart here.

How the values were obtained:
[1] = DPPH radical scavenging assay; conditions: for DPPH inhibition ratio (IR) after 30-min incubation / DPPH inhibition ratio (IR) immediately: 0.5 mM
Description: DPPH is a stable free radical with a deep violet color that changes to yellow when neutralized by an electron or hydrogen radical, indicating the antioxidant activity of the sample being tested. The DPPH radical scavenging abilities were investigated following the method outlined by Shimamura et al., with minor adjustments. In this study, a cardiovascular tissue homogenate was used to induce H2S release from the dithioacetate derivatives 22 and 24, as well as GYY4137. A mixed solution of 1.2 mL of methanol and 800 µL of 0.1 M Tris-HCl buffer (pH 7.4) served as the blank. 1 mL DPPH solution was added to a mixture of methanol and 0.1 M Tris-HCl buffer (200:800 µL). After mixing, the absorbance was recorded at 517 nm on a UV-1600 PC VWR spectrophotometer (VWR, China). To avoid any potential interference from the heart extract in the assay, we measured the absorbance after adding different volumes of the extract into the mixture. These measurements were taken both immediately and after 30 min of incubation.
The DPPH antioxidant assay was performed according to the following procedures. 1 mL of DPPH solution was added to a mixture of 200 µL of the methanolic sample solution and 800 µL of 0.1 M Tris-HCl buffer (pH = 7.4). For the groups containing the extract, the extract was introduced into a mixture of the sample solution in PBS buffer, 0.1 M Tris-HCl buffer, and DPPH (200:800:1000 µL). Considering that GYY4137 produces H2S upon hydrolysis, it was introduced last following the addition of the extract into a solution of PBS buffer, 0.1 M Tris-HCl buffer, and DPPH maintained at the same ratio. The same protocol was employed for NaHS without the addition of the extract. After mixing, the absorbance was promptly recorded, after which the solutions were incubated in the dark at room temperature for 30 min before the absorbance was measured again. The test samples were prepared and assayed at varying concentrations using a 2-fold serial dilution method, starting from a concentration of 2 mM. Each investigation was performed in triplicate, and the antioxidant activity was based on the absorbance recorded at 517 nm. Ascorbic acid (AA), GYY4137, and NaHS served as positive controls, while the unmodified nucleosides were used as reference compounds.
The inhibition ratio (IR) was calculated as follows: [drawing 1] where Ac is the absorbance when methanol is added instead of the sample and As is the absorbance when the testing sample solution is added.
The antioxidant capacity was expressed as the concentration needed to achieve a 50% inhibition of the free radical (IC50). The IC50 values were calculated by plotting the percent of inhibition as a function of sample concentration.

[2] = H2S release detected with amperometric H2S-specific sensor in DMEM; conditions: DMEM with 10% FBS, 0.28-0.32 mM compound
Description: The H2S-donating ability of compound 22, 24, 27, 29 and 30 (0.5 mg dissolved in 0.1 mL of DMSO) was detected in Dulbecco’s modified Eagle’s medium (DMEM) (4.9 mL) supplemented with 10% fetal bovine serum and 1% penicillin-streptomycin. The final concentrations were 0.31 mM for compound 22, 0.29 mM for compound 24, 0.28 mM for compound 27, 0.32 mM for compound 29 and 0.32 mM for compound 30, respectively. The released H2S was detected by an amperometric, H2S specific sensor (ISO-H2S-100, World Precision Instruments, Saratosa, FL, USA) connected to a WPI TBR 1025 One-Channel Free Radical Analyzer. The sensor was set to 10 nA range and poise voltage to + 150 mV. Before the measurements the sensor was polarized in phosphate buffered saline (PBS) for 12 h[19]. The H2S-release of NaHS was detected in distilled water (0.1 mg in 5 mL of H2O; 0.36 mM) and the H2S-release of GYY4137 was measured in DMEM (0.5 mg of GYY4137 in 5 mL of medium; 0.27 mM).

Calu-3 cells = assay: Cytotoxicity in Calu-3 cells (CellTiter-Glo); format: cell-based, human; conditions: Calu-3 cells, no virus, two days incubation; read-out: CC50 ± SE, cytotoxicity in Calu-3 cells
Description: Cytotoxicity was evaluated by incubating the same two-fold serial dilutions of each compound with Calu-3 cells as above in the absence of the virus. Following two days incubation at 37 °C in 5% CO2, the cell viability was determined as above. The compound concentrations resulting in 50% reduction of cell viability (CC50) were calculated from plots of percentage of luminescence versus log10 drug concentration as above. Remdesivir was used as control in both assays.

[3] = test system: SARS-CoV-2 (strain hCoV-19/Czech Republic/NRL_6632_2/2020); assay: Anti-SARS-CoV-2 cytopathic-effect-based assay in Calu-3 cells (CellTiter-Glo); format: cell-based; conditions: compound added 2 h after infection, MOI 0.3, read after two days, read-out: EC50 ± SE, anti-SARS-CoV-2 activity
SARS-CoV-2 = format: cell-based; conditions: medium of Calu-3 cells infected 2 days at the highest compound concentration, plaque assay in Vero E6 cells
[4] = test system: anaesthetized Sprague-Dawley rats; assay: Cardiac effects by ECG and echocardiography in anaesthetized rats; format: in vivo, rat; conditions: for Ejection Fraction / Heart rate / PR interval / QT interval / Stroke Volume: anaesthetized SD rats, 30 s after administration, mean ± SD
Description: The animals received humane care, and all experimental procedures were carried out in accordance with the “Principles of Laboratory Animal Care” by EU Directive 2010/63/EU. All experimental protocols were approved by the local Ethics Committee of University of Debrecen (25/2023/DEMÁB). Animal experiments are reported in compliance with the ARRIVE guidelines. Anesthesia was carried out using ketamine/xylazine mixture (100/10 mg/kg, i.m.). The chest was shaved and the animal was placed onto a heated pad (VisualSonics SR200, VisualSonics, Amsterdam, The Netherlands). The lateral tail vein was cannulated using a heparinized 26G i.v. cannula (BD Neoflon, BD Medical, NJ, USA). B-mode and M-mode echocardiography was carried out before and 30 s after the intravenous administration of the compounds. A high-resolution ultrasound machine (Vevo 3100 Imaging Station, VisualSonics, Amsterdam, The Netherlands) equipped with a […] transducer (MX201) was used for assessing cardiac parameters. Traces were obtained from the parasternal long axis view (PLAX). A B-mode video and an M-mode trace was recorded, and the following parameters were then offline analysed: left ventricle (LV) end-systolic and end-diastolic volume (LVESV, LVEDV, respectively) fractional shortening (FS) and ejection fraction (EF) and stroke volume (SV).
A 3-channel ECG was continuously recorded during the experiments (Vevo monitor ECG, VisualSonics, Amsterdam, The Netherlands). On the recorded ECG data, RR, PR and QT intervals, and heart rate (HR) were determined before and 30 s after the administration of the drugs, and 6 consecutive cardiac cycles were averaged for each parameter.
Statistical analyses for the in vivo studies were carried out using the GraphPad Prism 9.0 software (GraphPad Software, San Diego, CA, USA). Data distribution was assessed by the Shapiro-Wilk normality test, and paired t-test were used to determine the differences between the baseline (drug free) and endpoint (treated) parameters in each group. A multiple comparison was also carried out between the treatment groups by using one-way ANOVA with Tukey multiple comparison test. Data was shown as mean ± SD, and differences with p < 0.05 were considered significant.

[5] = ABTS radical cation decolorization assay; conditions: 0.1 mM, compared with parent dithioacetates 22 and 24
Description: The ABTS decolorization assay was carried out as described by Szoke et al.[54] Briefly, the method is based on the scavenging of (2,2′-azinobis-(3-ethylbenzothiazoline-6-sulfonic acid) ABTS^•+ radical cation. The decolorization caused by the compound is compared to the decolorization induced by Trolox (6-hydroxy-2,5,7,8-tetramethylchroman-2-carboxylic acid), and expressed as Trolox equivalent antioxidant capacity (TEAC) value. TEAC values were expressed as Trolox equivalents calculated from (Ai − Af)antioxidant/(Ai − Af) Trolox at 0.1 mM concentrations. Briefly, a total of 10 µL sample, 20 µL of Myoglobin Working Solution, and 150 µL of ABTS Substrate Working Solution were mixed and incubated for 5 min at room temperature. At the end of incubation […] of Stop Solution was added and endpoint absorbance at 405 nm was read. All experiments were performed in triplicates and repeated three times.

[6] = after 30 min incubation, without extract, read-out: DPPH IC50 30 min
[7] = measured immediately, without extract, read-out: DPPH IC50 immediately
[8] = anaesthetized rats, 2 mg/kg i.v.
[9] = after 30 min incubation, with 20 µL homogenized rat heart extract, read-out: DPPH IC50 30 min, + extract (20 µL)
[10] = measured immediately, with 20 µL homogenized rat heart extract, read-out: DPPH IC50 immediately, + extract (20 µL)

Molecule	IC50 [1, 6]	IC50 [1, 7]	persistence of measurable H2S release [2]	time at which H2S gas release reached the maximum level [2]	CC50 (Calu-3 cells)	EC50 [3]	SARS-CoV-2 titer reduction (SARS-CoV-2)	other results
O=C1O[C@H]([C@@H](O)CO)C(O)=C1O [Ascorbic acid (AA), Ascorbic acid, reference compound]	60 µM	60 µM	–	–	–	–	–	DPPH inhibition ratio (IR) after 30-min incubation ([1]; after 30 min incubation): 97.13%; DPPH inhibition ratio (IR) immediately ([1]; immediately): 97.25%
S-(Guanosine-5′-yl)-dithioacetic acid [Compound 27]	–	–	remained at a measurable level even after two hours	10 to 20 min	> 1000 µM	158 ± 34 µM	0.38 log10 PFU/mL	–
Nc1ncnc2c1ncn2[C@@H]1O[C@H](CO)[C@@H](O)[C@H]1O [Adenosine, reference compound]	–	–	–	–	–	–	–	Ejection Fraction ([4]; 2 mg/kg i.v.): 71.25±2.958%; Heart rate ([4]; 2 mg/kg i.v.): 67.38±16.46 bpm; PR interval ([4]; 2 mg/kg i.v.): 59.50 ± 10.63 ms; QT interval ([4]; 2 mg/kg i.v.): 195.0 ± 31.69 ms; Stroke Volume ([4]; 2 mg/kg i.v.): 396.8 ± 130.4 µL; time within which negative chronotropic effect dissipated [4, 8]: approximately 60 s; heart block (in words) ([4]; rat, in vivo, iv, 2 mg/kg): induced heart block
S-(Adenosine-5′-yl)-dithioacetic acid [Compound 24]	2580 µM	3540 µM	remained at a measurable level even after two hours	10 to 20 min	~1000 µM	173 ± 24 µM	0 log10 PFU/mL	Ejection Fraction ([4]; 2 mg/kg i.v.): 80.70±5.230%; Heart rate ([4]; 2 mg/kg i.v.): 120.5±29.19 bpm; PR interval ([4]; 2 mg/kg i.v.): 47.00 ± 3.742 ms; QT interval ([4]; 2 mg/kg i.v.): 172.3 ± 46.85 ms; Stroke Volume ([4]; 2 mg/kg i.v.): 416.5 ± 93.56 µL; duration of negative chronotropic action compared with adenosine [4, 8]: their duration of action was longer; heart block (in words) [4, 8]: None of the new compounds (22, 24, and 34) induced complete heart block or pauses; IC50 [1, 9]: 1620 µM; IC50 [1, 10]: 2660 µM
S-(Thymidine-5′-yl)-dithioacetic acid [Compound 30]	–	–	remained at a measurable level even after two hours	10 to 20 min	764 ± 82 µM	621 ± 181 µM	0.01 log10 PFU/mL	–
S-(Cytidine-5′-yl)-dithioacetic acid [Compound 29]	–	–	remained at a measurable level even after two hours	10 to 20 min	> 1000 µM	> 1000 µM	0.13 log10 PFU/mL	–
[Na+].[SH-] [NaHS, sodium hydrosulfide, reference compound]	–	–	–	–	–	–	–	DPPH inhibition ratio (IR) after 30-min incubation ([1]; after 30 min incubation): 90% and 90.03%; DPPH inhibition ratio (IR) immediately ([1]; immediately): 56.14%
O=c1ccn([C@@H]2O[C@H](CO)[C@@H](O)[C@H]2O)c(=O)[nH]1 [Uridine, reference compound]	> 100000 µM	> 100000 µM	–	–	–	–	–	–
S-(Uridine-5′-yl)-dithioacetic acid [Compound 22]	3630 µM	5560 µM	remained at a measurable level even after two hours	10 to 20 min	> 1000 µM	> 1000 µM	0.02 log10 PFU/mL	Ejection Fraction ([4]; 2 mg/kg i.v.): 68.70±4.226%; Heart rate ([4]; 2 mg/kg i.v.): 172.3±19.45 bpm; PR interval ([4]; 2 mg/kg i.v.): 51.2 ± 7.530 ms; QT interval ([4]; 2 mg/kg i.v.): 122.2 ± 10.73 ms; Stroke Volume ([4]; 2 mg/kg i.v.): 344.6 ± 81.32 µL; heart block (in words) [4, 8]: None of the new compounds (22, 24, and 34) induced complete heart block or pauses; IC50 [1, 9]: 1570 µM; IC50 [1, 10]: 3520 µM
C1COCCN1.COc1ccc(P(=S)(S)N2CCOCC2)cc1 (stereo not drawn) [GYY4137, reference compound]	–	–	–	–	–	–	–	DPPH inhibition ratio (IR) after 30-min incubation ([1]; after 30 min incubation): 10.63%; DPPH inhibition ratio (IR) immediately ([1]; immediately): 5.95%
O=c1ccn([C@@H]2O[C@H](CS)[C@@H](O)[C@H]2O)c(=O)[nH]1 [Compound 32, 5′-Thiouridine]	570 µM	710 µM	–	–	–	–	–	ABTS antioxidant activity (Trolox equivalents), in words [5]: higher antioxidant activity than the parent dithioacetate derivatives; DPPH inhibition ratio after 30 min incubation ([1]; 2 mM, after 30 min incubation): 90%; DPPH inhibition ratio immediately ([1]; 2 mM, immediately): 70–80%; DPPH activity lower than that of ascorbic acid ([1]; from IC50 values, relative to ascorbic acid): 10 times
